US7504537B2, “Hydroxamic acid derivative and MMP inhibitor containing the same as active ingredient” (Dainippon Sumitomo Pharma Co., Ltd., priority 2001, dated 2009)
pIC50: −log10 of the molar value.

Tests used:
Assay type in all cases: biochemical
[1] = target: T1, MMP-14 (MT1-MMP) (Homo sapiens, UniProt P50281); assay: Test 5 MMP-14 (MT1-MMP) inhibiting activity test; conditions: human recombinant MT1-MMP, 37° C.; read-out: MMP-14 inhibition activity value
T1 construct: purchased Biogenesis, supplied by Cosmobio (Nakarai Tesku)
Description: Test 5 MMP-14 (MTI-MMP) Inhibiting Activity Test
Human recombinant MTI-MMP used the product prepared by Biogenesis and supplied by Cosmobio (Nakarai Tesku).
An assay buffer solution (70 μl, pH 7.5 solution containing 0.1M Tris-HCl solution, 0.1M calcium chloride solution, 10 mM sodium chloride solution and 0.05% Brij-35 solution), 0.1 w/w % a compound in DMSO (10 μl), MMP substrate solution (MOCAc-Pro-Leu-Gly-Leu-A2pr(DNP)-Ala-Arg-NH2 (Peptide Lab.) diluted with the assay buffer solution (50 μM, 10 μl)) and human recombinant MT1-MMP (0.4 pg/10 μl/well) were well agitated under stirring. The enzyme activity of the mixture was measured based on fluorescence intensity (λex 320 nm/λem 405 nm) by a fluorescence reader. After the mixture was incubated at 37° C. for 0.5 hour, the fluorescence intensity (λex 320 nm/λem 405 nm) was measured every hour, and IC50 was calculated.
The inhibition value was calculated by withdrawing average value of blank well from fluorescence mean value of well in which MT1-MMP was added. As the blank was used the mixed solution prepared by adding assay buffer (10 μl) instead of MT1-MMP solution.

[2] = target: T2, MMP-3 (Homo sapiens, UniProt P08254); assay: Test 1 Test on MMP-3 inhibiting activity (fluorogenic peptide substrate); conditions: activated MMP-3, 37° C.; read-out: MMP-3 inhibition activity value
T2 construct: C-terminal truncated cDNA in which the cDNA encodes human prostromelysin; made in house; host or cells: E. coli
Description: Test 1 Test on MMP-3 Inhibiting Activity
C-terminal truncated cDNA in which the cDNA encodes human prostromelysin, was subcloned (proMMP-3, cDNA sequence in Nature, 348, 699-704 (1990)), was expressed in E. coli and then, the expressed protein was purified in accordance with the method described in Biochemistry 30, 6476-6483 (1991). proMMP-3 activation was carried out by treating with 1 mM 4-aminophenyl mercuric acetate for 60 minutes at 37° C.
Enzyme activity test was conducted by the method of C. G. Knight (FEBS Lett., 296(3), 263-266 (1992)).
A mixture of activated MMP-3 (20 nM, 10 μl), buffer solution (70 μl, pH 7.5 solution containing 100 mM Tris-HCl solution, 10 mM calcium chloride solution, 100 mM sodium chloride solution and 0.05% Brij-35 solution), MOCAc-Pro-Leu-Gly-Leu-A2pr(DNP)-Ala-Arg-NH2 in 0.1% DMSO solution (100 μM, 10 μl) and a test compound in DMSO solution was incubated for 1.5 hours at 37° C. The mixture was put on a 96 well-plate (100 μl/well) and the plate was cultured at 37° C. The enzyme activity in the presence of the compound was measured based on fluorescence intensity (λex 320 nm, λem 405 nm), and IC50 was calculated.

[3] = target: T3, MMP-2 (Homo sapiens, UniProt P08253); assay: Test 3 MMP-2 inhibition activity test (gelatinase activity assay kit); conditions: activated human MMP-2, biotin labeled gelatin
T3 construct: purchased Boeringer Manheim (Roche Diagnostics)
T3 sequence (P08253 110-660): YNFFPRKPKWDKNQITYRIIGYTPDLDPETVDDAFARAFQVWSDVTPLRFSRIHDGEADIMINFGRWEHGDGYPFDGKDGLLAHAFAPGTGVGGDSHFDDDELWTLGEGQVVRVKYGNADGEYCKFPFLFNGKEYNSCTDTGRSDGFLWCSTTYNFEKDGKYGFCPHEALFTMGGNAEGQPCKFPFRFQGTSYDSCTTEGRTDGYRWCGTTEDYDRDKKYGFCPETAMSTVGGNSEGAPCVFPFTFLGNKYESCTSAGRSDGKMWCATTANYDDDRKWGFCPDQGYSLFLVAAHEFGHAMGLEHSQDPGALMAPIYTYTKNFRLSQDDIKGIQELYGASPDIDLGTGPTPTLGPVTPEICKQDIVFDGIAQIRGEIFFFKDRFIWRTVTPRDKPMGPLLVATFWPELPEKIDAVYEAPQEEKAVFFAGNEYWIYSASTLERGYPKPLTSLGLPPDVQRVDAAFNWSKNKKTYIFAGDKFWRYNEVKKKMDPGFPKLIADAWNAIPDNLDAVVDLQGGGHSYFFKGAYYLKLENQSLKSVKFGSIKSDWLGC
Description: TTC buffer solution was attached to a MMP-2 enzyme assay kit, and the solution was made of 50 mM tris, 1 mM calcium chloride solution and 0.05% Triton X-100 solution, and was adjusted to pH 7.5.
Test 3 MMP-2 Inhibition Activity Test
MMP-2 enzyme assay kit (Gelatinase Activity Assay, Roche.Diagonistics) was used.
A mixture of 1.2U human MMP-2 (20 μl, Boeringer Manheim 30U freezed dry product), TTC buffer (980 μl) and 2.5 mM 4-aminophenyl mercuric acetate solution (144 μl) was incubated at 37° C. for 30 minutes and then it was preserved under ice cooling until use.
A mixture of DMSO solution (2 μl) containing a definite concentration of the compound, biotin labeled gelatin (188 μl) and activated MMP-2 solution (10 μl) was put on a 96 well-assay plate (protein nonabsorbance type), well agitated and incubated at 37° C. for 1 hour. This solution was transferred to a Streptavidin-coating plate and agitated at 15° C, to 30° C. for 30 minutes. And then the solution was washed with TTC buffer solution (200 μl) three times. Thereto was added Streptavidin-POD (200 μl) and the mixture was agitated at 15° C. to 25° C. for 60 minutes, followed by washing with TTC buffer (200 μl) three times. Then, ABTS solution (200 μl) was added thereto and after standing at room temperature for 40 minutes, furuorescence intensity was measure at 405 nm and IC50 was calculated.
In case of the above test, a control and a blank were prepared when the well was prepared as mentioned below. DMSO (2 μl) was used as a control instead of a sample solution. In the case of a blank, DMSO (2 μl) instead of the sample solution and the solution (10 μl) prepared in the same manner as preparation of activated MMP-2 solution but without adding 1.2U human MMP-2, instead of activated MMP-2 solution (10 μl), were used.

T2 sequence (P08254 100-272 limits assumed): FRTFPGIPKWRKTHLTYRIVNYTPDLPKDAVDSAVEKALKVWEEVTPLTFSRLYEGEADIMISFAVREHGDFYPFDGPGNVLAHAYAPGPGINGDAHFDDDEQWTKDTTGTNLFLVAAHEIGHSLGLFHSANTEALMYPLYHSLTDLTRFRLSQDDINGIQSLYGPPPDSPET

Structure (SMILES) | pIC50 [1] | pIC50 [2] | pIC50 [3]
CCOC(=O)CN(C1(C(=O)NO)CCC1)S(=O)(=O)c1ccc(Oc2ccc(S(C)(=O)=O)cc2)cc1 [Example 46, Ethyl N-{1-[(hydroxyamino)carbonyl]cyclobutyl}-N-({4-[4-(methylsulfonyl)phenoxy]phenyl}sulfonyl)glycinate] | < 5.82 | 7.94 | < 7.00
COCCCN(CC(=O)NO)S(=O)(=O)c1ccc(Oc2ccc(S(C)(=O)=O)cc2)cc1 [Example 43, N^1-Hydroxy-N^2-(3-methoxypropyl)-N^2-({4-[4-(methylsulfonyl)phenoxy]phenyl}sulfonyl)glycinamide] | 7.09 | 8.07 | 5.82
CC(C)CN(C1(C(=O)NO)CCC1)S(=O)(=O)c1ccc(Oc2ccc(S(C)(=O)=O)cc2)cc1 [Example 18, N-Hydroxy-1-[isobutyl({4-[4-(methylsulfonyl)phenoxy]phenyl}sulfonyl)amino]cyclobutanecarboxamide] | 6.10 | 7.52 | –
COc1ccc(Oc2ccc(CC3Sc4ccc(C(=O)O)cc4N(CC(=O)NO)C3=O)cc2)cc1 (centres unmarked) [compound 1, reference compound] | 7.06 | 7.06 | < 7.00
CCOC(=O)CN(CC(=O)NO)S(=O)(=O)c1ccc(Oc2ccc(S(C)(=O)=O)cc2)cc1 [Example 22, Ethyl N-{[(hydroxyamino)carbonyl]methyl}-N-({4-[4-(methylsulfonyl)phenoxy]phenyl}sulfonyl)-glycinate] | 6.18 | 7.58 | 5.92
CS(=O)(=O)c1ccc(Oc2ccc(CC3Sc4ccc(C(=O)O)cc4N(CC(=O)NO)C3=O)cc2)cc1 (centres unmarked) [Example 50] | < 6.00 | 7.42 | < 7.00
CCOC(=O)CCN(C1(C(=O)NO)CCCC1)S(=O)(=O)c1ccc(Oc2ccc(S(C)(=O)=O)cc2)cc1 [Example 26, Ethyl N-{1-[(hydroxyamino)carbonyl]cyclopentyl}-N-({4-[4-(methylsulfonyl)phenoxy]phenyl}sulfonyl)-β-alaninate] | 6.40 | 7.84 | 6.52
CCOCCN(C1(C(=O)NO)CCCC1)S(=O)(=O)c1ccc(Oc2ccc(S(C)(=O)=O)cc2)cc1 [Example 45, 1-[(2-Ethoxyethyl)({4-[4-(methylsulfonyl)phenoxy]phenyl}sulfonyl)amino]-N-hydroxycyclopentanecarboxamide] | < 5.82 | 8.82 | < 7.00
CC(C)CN(C1(C(=O)NO)CCCC1)S(=O)(=O)c1ccc(Oc2ccc(S(C)(=O)=O)cc2)cc1 [Example 2, N-hydroxy 1-[isobutyl({4-[4-(methylsulfonyl)phenoxy]phenyl}sulfonyl)amino]cyclopentanecarboxamide] | 5.42 | 7.67 | > 7.00
CS(=O)(=O)c1ccc(Oc2ccc(S(=O)(=O)N(CC(=O)O)CC(=O)NO)cc2)cc1 [Example 24, N-{[(Hydroxyamino)carbonyl]methyl}-N-({4-[4-(methylsulfonyl)phenoxy]phenyl}sulfonyl)-glycine] | < 5.30 | 6.89 | < 5.00
COCCN(CC(=O)NO)S(=O)(=O)c1ccc(Oc2ccc(S(C)(=O)=O)cc2)cc1 [Example 44, N^1-Hydroxy-N^2-(2-methoxyethyl)-N^2-({4-[4-(methylsulfonyl)phenoxy]phenyl}sulfonyl)glycinamide] | 6.46 | 8.57 | < 7.00
CS(=O)(=O)c1ccc(Oc2ccc(S(=O)(=O)N(CCC(=O)O)CC(=O)NO)cc2)cc1 [Example 36, N-[2-(Hydroxyamino)-2-oxoethyl]-N-({4-[4-(methylsulfonyl)phenoxy]phenyl}sulfonyl)-β-alanine] | 6.03 | 7.43 | 5.54
CCOC(=O)CCN(C1(C(=O)NO)CCOCC1)S(=O)(=O)c1ccc(Oc2ccc(S(C)(=O)=O)cc2)cc1 [Example 31, Ethyl N-{4-[(hydroxyamino)carbonyl]tetrahydro-2H-pyran-4-yl}-N-({4-[4-(methylsulfonyl)phenoxy]phenyl}sulfonyl)-β-alaninate] | < 5.30 | 7.23 | 6.10
CC(C)OCCN(CC(=O)NO)S(=O)(=O)c1ccc(Oc2ccc(S(C)(=O)=O)cc2)cc1 [Example 3, N^1-hydroxy-N^2-(2-isopropoxyethyl)-N^2-({4-[4-(methylsulfonyl)phenoxy]phenyl}sulfonyl)glycinamide] | 6.76 | 8.32 | < 7.00
CS(=O)(=O)c1ccc(Oc2ccc(S(=O)(=O)N(CCC(=O)O)C3(C(=O)NO)CCCC3)cc2)cc1 [Example 27, N-{1-[(Hydroxyamino)carbonyl]cyclopentyl}-N-({4-[4-(methylsulfonyl)phenoxy]phenyl}sulfonyl)-β-alanine] | < 5.30 | 7.05 | < 5.00
CC(C)(C(=O)NO)N(Cc1ccccc1)S(=O)(=O)c1ccc(Oc2ccc(S(C)(=O)=O)cc2)cc1 [Example 10, N′^2′-Benzyl-N′^1′-hydroxy-2-methyl-N′^2′-({4-[4-(methylsulfonyl)phenoxy]phenyl}sulfonyl)alaninamide] | < 5.30 | 7.07 | 5.62
CS(=O)(=O)c1ccc(Oc2ccc(S(=O)(=O)N(CC(=O)NO)Cc3ccncc3)cc2)cc1 [Example 42, N′^1′-Hydroxy-N′^2′-({4-[4-(methylsulfonyl)phenoxy]phenyl}sulfonyl)-N′^2′-(4-pyridinylmethyl)glycinamide] | < 5.30 | 7.17 | > 7.00
CS(=O)(=O)c1ccc(Oc2ccc(S(=O)(=O)NC3(C(=O)NO)CCC3)cc2)cc1 [Example 48, N-Hydroxy-1-[({4-[4-(methylsulfonyl)phenoxy]phenyl}sulfonyl)amino]cyclobutanecarboxamide] | < 5.82 | 7.44 | < 7.00
